Test results as given in patent publication US20230219969A1 (priority 2020, published 2023).

Tests used:
[1] = molecular target: T1, 5-HT2C edited (accession number AAF35842.1) (Homo sapiens, UniProt P28335, I156V/I160V/N158S); test: biochemical; format: binding
Target sequence in this assay (P28335 whole entry I156V/N158S/I160V, looked up): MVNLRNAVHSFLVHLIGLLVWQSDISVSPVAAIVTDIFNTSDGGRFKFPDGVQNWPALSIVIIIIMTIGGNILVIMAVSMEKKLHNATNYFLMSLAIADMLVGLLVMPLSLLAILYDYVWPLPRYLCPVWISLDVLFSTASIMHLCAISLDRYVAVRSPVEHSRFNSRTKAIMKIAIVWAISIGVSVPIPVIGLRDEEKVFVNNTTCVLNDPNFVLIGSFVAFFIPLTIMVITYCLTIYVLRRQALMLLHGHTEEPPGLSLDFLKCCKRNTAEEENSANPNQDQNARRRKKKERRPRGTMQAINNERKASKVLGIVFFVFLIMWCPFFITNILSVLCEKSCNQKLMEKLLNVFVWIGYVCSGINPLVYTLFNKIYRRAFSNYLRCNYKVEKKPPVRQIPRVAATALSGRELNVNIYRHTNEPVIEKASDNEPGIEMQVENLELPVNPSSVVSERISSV

[2] = molecular target: T1, 5-HT2C edited (accession number AAF35842.1); test: cell-based
Target sequence in this assay (P28335 33-458 I156V/N158S/I160V limits assumed): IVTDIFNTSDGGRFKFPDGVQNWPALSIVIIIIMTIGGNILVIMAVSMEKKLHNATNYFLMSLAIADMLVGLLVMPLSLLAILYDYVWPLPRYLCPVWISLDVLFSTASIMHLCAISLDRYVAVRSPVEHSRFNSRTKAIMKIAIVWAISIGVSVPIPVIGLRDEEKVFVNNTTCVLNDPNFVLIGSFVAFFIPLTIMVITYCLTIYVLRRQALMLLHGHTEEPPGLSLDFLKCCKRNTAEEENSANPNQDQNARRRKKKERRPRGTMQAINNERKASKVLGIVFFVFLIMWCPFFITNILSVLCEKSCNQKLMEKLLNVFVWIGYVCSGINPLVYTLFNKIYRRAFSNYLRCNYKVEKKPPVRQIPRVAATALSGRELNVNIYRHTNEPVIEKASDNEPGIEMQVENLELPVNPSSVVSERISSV

| SMILES | IC50 [1] | EC50 [2] |
| --- | --- | --- |
| COc1ccc2c(ccn2CC(C)(C)N(C)C)c1 [Example 1, 1-(5-methoxy-1H-indol-1-yl)-N,N,2-trimethylpropan-2-amine] | 1 to 10 µM | > 10 µM |
| COc1ccc2c(ccn2CC2(N(C)C)CC2)c1 [Example 2, 1-((5-methoxy-1H-indol-1-yl)methyl)-N,N-dimethylcyclopropan-1-amine] | 1 to 10 µM | > 10 µM |
| COc1ccc2c(ccn2CCN(C)C)n1 [Example 3, 2-(5-methoxy-1H-pyrrolo[3,2-b]pyridin-1-yl)-N,N-dimethylethan-1-amine] | 0.101 to 1 µM | > 10 µM |
| COc1cc2ccn(CCN(C)C)c2cn1 [Example 4, 2-(5-methoxy-1H-pyrrolo[2,3-c]pyridin-1-yl)-N,N-dimethylethan-1-amine] | 0.101 to 1 µM | > 10 µM |
| COc1cnc2c(ccn2CCN(C)C)c1 [Example 5, 2-(5-methoxy-1H-pyrrolo[2,3-b]pyridin-1-yl)-N,N-dimethylethan-1-amine] | 0.101 to 1 µM | > 10 µM |
| CN(C)CCn1ccc2cncnc21 [Example 6, N,N-dimethyl-2-(7H-pyrrolo[2,3-d]pyrimidin-7-yl)ethan-1-amine] | 1 to 10 µM | > 10 µM |
| CN(C)CCn1ccc2cnccc21 [Example 7, N,N-dimethyl-2-(1H-pyrrolo[3,2-c]pyridin-1-yl)ethan-1-amine] | > 10 µM | > 10 µM |
| COc1ccc2c(c1)CCN2CCN(C)C [Example 8, 2-(5-methoxyindolin-1-yl)-N,N-dimethylethan-1-amine] | 1 to 10 µM | > 10 µM |
| COc1ccc2c(c1)CCCN2CCN(C)C [Example 9, 2-(6-methoxy-3,4-dihydroquinolin-1(2H)-yl)-N,N-dimethylethan-1-amine] | 0.101 to 1 µM | > 10 µM |
| COc1ccc2c(c1)CN(CCN(C)C)C2 [Example 10, 2-(5-methoxyisoindolin-2-yl)-N,N-dimethylethan-1-amine] | 1 to 10 µM | 1 to 10 µM |
| COc1ccc2c(c1)CCN(CCN(C)C)C2 [Example 11, 2-(6-methoxy-3,4-dihydroisoguinolin-2(1H)-yl)-N,N-dimethylethan-1-amine] | 0.101 to 1 µM | > 10 µM |
| CN(C)C(C)(C)Cn1ccc2c(F)c(F)ccc21 [Example 12, 1-(4,5-difluoro-1H-indol-1-yl)-N,N,2-trimethylpropan-2-amine] | > 10 µM | > 10 µM |
| Cc1cn(CC(C)(C)N(C)C)c2ccc(F)cc12 [Example 13, 1-(5-fluoro-3-methyl-1H-indol-1-yl)-N,N,2-trimethylpropan-2-amine] | 1 to 10 µM | 1 to 10 µM |
| CN(C)C(C)(C)Cn1ccc2cc(F)ccc21 [Example 14, 1-(5-fluoro-1H-indol-1-yl)-N,N,2-trimethylpropan-2-amine] | > 10 µM | > 10 µM |
| COc1ccc2c(ccn2CC(C)(C)N(C)C)c1F [Example 15, 1-(4-fluoro-5-methoxy-1H-indol-1-yl)-N,N,2-trimethylpropan-2-amine] | > 10 µM | > 10 µM |
| COc1cc2ccn(CC(C)(C)N(C)C)c2cc1F [Example 16, 1-(6-fluoro-5-methoxy-1H-indol-1-yl)-N,N,2-trimethylpropan-2-amine] | > 10 µM | > 10 µM |
| COc1cc(F)c2c(ccn2CC(C)(C)N(C)C)c1 [Example 17, 1-(7-fluoro-5-methoxy-1H-indol-1-yl)-N,N,2-trimethylpropan-2-amine] | > 10 µM | > 10 µM |
| CN(C)C(C)(C)Cn1ccc2c(F)cccc21 [Example 18, 1-(4-fluoro-1H-indol-1-yl)-N,N,2-trimethylpropan-2-amine] | > 10 µM | > 10 µM |
| CN(C)C(C)(C)Cn1ccc2ccc(F)cc21 [Example 19, 1-(6-fluoro-1H-indol-1-yl)-N,N,2-trimethylpropan-2-amine] | > 10 µM | > 10 µM |
| CN(C)C(C)(C)Cn1ccc2cccc(F)c21 [Example 20, 1-(7-fluoro-1H-indol-1-yl)-N,N,2-trimethylpropan-2-amine] | > 10 µM | > 10 µM |
| COc1ccc2c(ccn2CC(C)(C)N(C)C)n1 [Example 21, 1-(5-methoxy-1H-pyrrolo[3,2-b]pyridin-1-yl)-N,N,2-trimethylpropan-2-amine] | > 10 µM | > 10 µM |
| COc1cc2ccn(CC(C)(C)N(C)C)c2cn1 [Example 22, 1-(5-methoxy-1H-pyrrolo[2,3-c]pyridin-1-yl)-N,N,2-trimethylpropan-2-amine] | > 10 µM | > 10 µM |
| COc1ncc2c(ccn2CC(C)(C)N(C)C)n1 [Example 23, 1-(2-methoxy-5H-pyrrolo[3,2-d]pyrimidin-5-yl)-N,N,2-trimethylpropan-2-amine] | > 10 µM | > 10 µM |
| COc1ccc2c(ccn2[C@H]2C[C@@H](N(C)C)C2)c1 [Example 24, (1s,3s)-3-(5-methoxy-1H-indol-1-yl)-N,N-dimethylcyclobutan-1-amine] | 1 to 10 µM | > 10 µM |

| SMILES | IC50 [1] | EC50 [2] |
| --- | --- | --- |
| COc1ccc2c(ccn2[C@H]2C[C@H](N(C)C)C2)c1 [Example 25, (1r,3r)-3-(5-methoxy-1H-indol-1-yl)-N,N-dimethylcyclobutan-1-amine] | 1 to 10 µM | > 10 µM |
| C[C@@H](N)Cn1ccc2cncnc21 [Example 26, (R)-1-(7H-pyrrolo[2,3-d]pyrimidin-7-yl)propan-2-amine] | 1 to 10 µM | 1 to 10 µM |
| C[C@H](Cn1ccc2cncnc21)N(C)C [Example 27, (R)—N,N-dimethyl-1-(7H-pyrrolo[2,3-d]pyrimidin-7-yl)propan-2-amine] | > 10 µM | > 10 µM |
| COc1ccc2c(ccn2C[C@@H](C)N)n1 [Example 28, (R)-1-(5-methoxy-1H-pyrrolo[3,2-b]pyridin-1-yl)propan-2-amine] | > 10 µM | 1 to 10 µM |
| CN[C@H](C)Cn1ccc2nc(OC)ccc21 [Example 29, (R)-1-(5-methoxy-1H-pyrrolo[3,2-b]pyridin-1-yl)-N-methylpropan-2-amine] | > 10 µM | > 10 µM |
| COc1ccc2c(ccn2C[C@@H](C)N(C)C)n1 [Example 30, (R)-1-(5-methoxy-1H-pyrrolo[3,2-b]pyridin-1-yl)-N,N-dimethylpropan-2-amine] | > 10 µM | > 10 µM |
| COc1cc2ccn(C[C@@H](C)N)c2cn1 [Example 31, (R)-1-(5-methoxy-1H-pyrrolo[2,3-c]pyridin-1-yl)propan-2-amine] | 0.101 to 1 µM | 0.101 to 1 µM |
| CN[C@H](C)Cn1ccc2cc(OC)ncc21 [Example 32, (R)-1-(5-methoxy-1H-pyrrolo[2,3-c]pyridin-1-yl)-N-methylpropan-2-amine] | 1 to 10 µM | 1 to 10 µM |
| COc1cc2ccn(C[C@@H](C)N(C)C)c2cn1 [Example 33, (R)-1-(5-methoxy-1H-pyrrolo[2,3-c]pyridin-1-yl)-N,N-dimethylpropan-2-amine] | > 10 µM | > 10 µM |
| COc1cnc2c(ccn2C[C@@H](C)N)c1 [Example 34, (R)-1-(5-methoxy-1H-pyrrolo[2,3-b]pyridin-1-yl)propan-2-amine] | 1 to 10 µM | 1 to 10 µM |
| CN[C@H](C)Cn1ccc2cc(OC)cnc21 [Example 35, (R)-1-(5-methoxy-1H-pyrrolo[2,3-b]pyridin-1-yl)-N-methylpropan-2-amine] | > 10 µM | 1 to 10 µM |
| COc1cnc2c(ccn2C[C@@H](C)N(C)C)c1 [Example 36, (R)-1-(5-methoxy-1H-pyrrolo[2,3-b]pyridin-1-yl)-N,N-dimethylpropan-2-amine] | 1 to 10 µM | 1 to 10 µM |
| C[C@@H](N)Cn1ccc2cnccc21 [Example 37, (R)-1-(1H-pyrrolo[3,2-c]pyridin-1-yl)propan-2-amine] | > 10 µM | 1 to 10 µM |
| CN[C@H](C)Cn1ccc2cnccc21 [Example 38, (R)—N-methyl-1-(1H-pyrrolo[3,2-c]pyridin-1-yl)propan-2-amine] | > 10 µM | > 10 µM |
| C[C@H](Cn1ccc2cnccc21)N(C)C [Example 39, (R)—N,N-dimethyl-1-(1H-pyrrolo[3,2-c]pyridin-1-yl)propan-2-amine] | > 10 µM | > 10 µM |
| Cc1cn(CC(C)(C)N)c2ccc(F)cc12 [Example 40, 1-(5-fluoro-3-methyl-1H-indol-1-yl)-2-methylpropan-2-amine] | 0.101 to 1 µM | 0.101 to 1 µM |
| CC(C)(N)Cn1ccc2c(F)c(F)ccc21 [Example 41, 1-(4,5-difluoro-1H-indol-1-yl)-2-methylpropan-2-amine] | 0.101 to 1 µM | 0.101 to 1 µM |
| COc1ccc2c(ccn2CC(C)(C)N)c1 [Example 42, 1-(5-methoxy-1H-indol-1-yl)-2-methylpropan-2-amine] | 1 to 10 µM | 1 to 10 µM |
| CN(C)CC(=O)n1ccc2cc(F)ccc21 [Example 43, 2-(dimethylamino)-1-(5-fluoro-1H-indol-1-yl)ethan-1-one] | > 10 µM | > 10 µM |
| CN(C)CC(=O)n1ccc2ccccc21 [Example 44, 2-(dimethylamino)-1-(1H-indol-1-yl)ethan-1-one] | > 10 µM | > 10 µM |
| COc1ccc2c(ccn2C(=O)CN(C)C)c1 [Example 45, 2-(dimethylamino)-1-(5-methoxy-1H-indol-1-yl)ethan-1-one] | > 10 µM | > 10 µM |
| C[C@H](C(=O)n1ccc2ccccc21)N(C)C [Example 46, (R)-2-(dimethylamino)-1-(1H-indol-1-yl)propan-1-one] | 1 to 10 µM | > 10 µM |
| COc1ccc2c(ccn2C(=O)[C@@H](C)N(C)C)c1 [Example 47, (R)-2-(dimethylamino)-1-(5-methoxy-1H-indol-1-yl)propan-1-one] | > 10 µM | > 10 µM |
| C[C@H](C(=O)n1ccc2cc(F)ccc21)N(C)C [Example 48, (R)-2-(dimethylamino)-1-(5-fluoro-1H-indol-1-yl)propan-1-one] | 1 to 10 µM | > 10 µM |
